For one test, the system named is SK-BR-3. Put plainly: Antiproliferative activity against human SKBR3 cells. It counts as functional, cell-based.
Another test concerns MCF7. Put plainly: Antiproliferative activity against human MCF7 cells. It counts as functional, cell-based.
The subject of test [1] is Jurkat. Put plainly: Potency index, ratio of etoposide IC50 to compound IC50 for antiproliferative activity against human Jurkat T cells. The test is classed as functional.
Test [2] has as its system Jurkat. Kind of test: Antiproliferative activity against human Jurkat T cells after 48 hrs. It counts as functional, cell-based.
The subject of test [3] is Jurkat. Kind of test: Potency index, ratio of 17-AAG IC50 to compound IC50 for antiproliferative activity against human Jurkat T cells. It counts as functional.
In test [4] the test system is Jurkat. Kind of test: Potency index, ratio of novobiocin IC50 to compound IC50 for antiproliferative activity against human Jurkat T cells. The test is classed as functional.
The target of another test is Heat shock protein HSP90 (Homo sapiens, UniProt P07900+P08238). Put plainly: Binding affinity to HSP90 (unknown origin) by SPR analysis. It counts as protein assay.
Test [5] addresses Chaperone protein dnaK (Escherichia coli) (UniProt C3TRK2). Put plainly: Inhibition of Escherichia coli DNAK ATPase activity after 3 hrs relative to control. Conditions: concentration not given here.

Chaperone protein dnaK (Escherichia coli), sequence (C3TRK2 1-638): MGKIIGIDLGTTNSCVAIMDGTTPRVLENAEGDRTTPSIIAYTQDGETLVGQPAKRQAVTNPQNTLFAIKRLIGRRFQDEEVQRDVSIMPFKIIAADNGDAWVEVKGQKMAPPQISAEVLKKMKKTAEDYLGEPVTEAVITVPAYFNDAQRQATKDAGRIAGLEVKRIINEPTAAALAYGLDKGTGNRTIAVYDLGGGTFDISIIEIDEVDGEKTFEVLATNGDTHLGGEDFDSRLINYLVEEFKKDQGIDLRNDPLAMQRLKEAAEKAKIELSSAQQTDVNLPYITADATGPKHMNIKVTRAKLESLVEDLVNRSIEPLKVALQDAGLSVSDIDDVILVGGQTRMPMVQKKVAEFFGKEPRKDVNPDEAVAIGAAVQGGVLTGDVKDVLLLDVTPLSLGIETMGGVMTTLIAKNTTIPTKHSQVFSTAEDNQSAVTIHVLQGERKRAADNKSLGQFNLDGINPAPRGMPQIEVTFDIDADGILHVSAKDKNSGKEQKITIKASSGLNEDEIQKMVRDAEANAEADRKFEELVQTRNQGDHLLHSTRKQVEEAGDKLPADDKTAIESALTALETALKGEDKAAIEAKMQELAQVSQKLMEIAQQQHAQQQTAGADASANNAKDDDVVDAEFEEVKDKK

One may read the IC50 as the concentration that gives 50% inhibition. Regarding `O=C(O[C@@H]1Cc2c(O)cc(O)cc2O[C@@H]1c1cc(O)c(O)c(O)c1)c1cc(O)c(O)c(O)c1` [EPIGALOCATECHIN GALLATE], the concentration for half-maximal inhibition (IC50) in the test with SK-BR-3 and in the test on MCF7 was 4000 nM throughout.
One may read the Kd as the concentration at which binding is half-saturated. As to `COc1cccc(-c2cc(C(=O)Nc3cc4cc(OC)c(OC(C)=O)c(C)c4oc3=O)ccc2OC)c1`, the figures for the “Ratio IC50” value in the test with Jurkat [1], with Jurkat [3] and in the test on Jurkat [4] were 3, 10 and 600, respectively. Besides, the concentration for half-maximal inhibition (IC50) in the test on Jurkat [2] stood at 416 nM. The same molecule yielded an equilibrium dissociation constant (Kd) at Heat shock protein HSP90 of 1000 to 2000 nM.
With `CO[C@@H]1[C@@H](OC(=O)c2ccc(C)[nH]2)[C@@H](O)[C@H](Oc2ccc3c(O)c(NC(=O)c4c[nH]c(C(=O)Nc5c(O)c6ccc(O[C@@H]7OC(C)(C)[C@H](OC)[C@@H](OC(=O)c8ccc(C)[nH]8)[C@H]7O)c(C)c6oc5=O)c4C)c(=O)oc3c2C)OC1(C)C`, the half-maximal inhibitory concentration (IC50) with SK-BR-3 and in the test on MCF7 was 2000 nM throughout.
Broadly, the inhibition is how much of the control response was suppressed. A high value points to a response far below the control. In turn, `O=c1c(O)c(-c2cc(O)c(O)c(O)c2)oc2cc(O)cc(O)c12` came in with an inhibition in test [5] of 75%.

For the origin of these results see ChEMBL document CHEMBL4308842, “Allosteric Modulators of HSP90 and HSP70: Dynamics Meets Function through Structure-Based Drug Design” (J Med Chem, 2018).
